Earlier results in patent US20220040156A1, “COMPOSITIONS, DEVICES AND METHODS FOR TREATING OBSESSIVE-COMPULSIVE DISORDER” (CENTRE FOR DIGESTIVE DISEASES, priority 2017, published 2022).

System: children with autism / autistic symptoms
Details: reports of Sandler et al. 2000, Rodakis 2015 and unreferenced observations

Structure (SMILES)	effect on behavioural changes / autistic symptoms
CC1(C)S[C@@H]2[C@H](NC(=O)[C@H](N)c3ccc(O)cc3)C(=O)N2[C@H]1C(=O)O [amoxycillin]	reversed almost completely
CN[C@H](CC(C)C)C(=O)N[C@H]1C(=O)N[C@@H](CC(N)=O)C(=O)N[C@H]2C(=O)N[C@H]3C(=O)N[C@H](C(=O)N[C@H](C(=O)O)c4cc(O)cc(O)c4-c4cc3ccc4O)[C@H](O)c3ccc(c(Cl)c3)Oc3cc2cc(c3O[C@@H]2O[C@H](CO)[C@@H](O)[C@H](O)[C@H]2O[C@H]2C[C@](C)(N)[C@H](O)[C@H](C)O2)Oc2ccc(cc2Cl)[C@H]1O [vancomycin]	reversal of behavioural changes and progress to normality within a few weeks
